The test system of the assay is MCF-7 cells. The experiment in a line: MCF-7 cell proliferation yield assay (nuclei counted after 4 days) with or without hormone. Type of assay: cell-based, human. As to conditions: hormone added with the inhibitor (CDHuS, CDHA, rHA); estradiol at 100 pM; the other hormones tested against rHA, data not shown. As to the method: A clonal population of the human breast cancer MCF-7 cell line was used in some of the experiments described below. These cells were routinely grown in 5% fetal bovine serum (FBS) supplemented-Dulbecco's Modified Eagle's Medium (DME). […] Estrogen non-target, serum-insensitive human breast cancer MDA-MB231 cells (ATCC, Rockville, Md.) were used as controls; they were grown under the same conditions as MCF-7 cells.
To assess the inhibitory effect of serum or purified protein preparations, 4×10^4 cells/well were seeded in 12-well Falcon Multiplates in 5% FBS; they were allowed to attach for 24 h before exposing them to test medium. Cell proliferation yields were measured after 4 days in DME plus 25 ug transferrin (T)/ml and 100 ng insulin (I)/ml ([…]) alone, or ITDME plus CD human serum (CDHuS), or purified protein preparations. Each sample was tested in duplicate in the presence or absence of 100 pM estradiol (E2) and each experiment was repeated at least three times. Phenol red-free media were used in all experiments involving cell proliferation rates or yields. Cells were lysed and nuclei counted on a Coulter Counter Model ZM.

As to `C[C@]12CCC(=O)C[C@@H]1CC[C@@H]1[C@@H]2CC[C@]2(C)[C@@H](O)CC[C@@H]12` [5α-dihydrotestosterone], the “reversal by hormone of the inhibitory effect on MCF-7 proliferation” value is given as “failed to reverse the effect of rHA”. For `CC(=O)[C@H]1CC[C@H]2[C@@H]3CCC4=CC(=O)CC[C@]4(C)[C@H]3CC[C@]12C` [Progesterone] the value was “failed to reverse the effect of rHA”; for `C[C@]1(O)CC[C@H]2[C@@H]3CCC4=CC(=O)CCC4=C3C=C[C@@]21C` [R1881], “failed to reverse the effect of rHA”. In the case of `C[C@]12CCC(=O)C=C1CC[C@@H]1[C@@H]2[C@@H](O)C[C@@]2(C)[C@H]1CC[C@]2(O)C(=O)CO` [hydrocortisone], the “reversal by hormone of the inhibitory effect on MCF-7 proliferation” value is “failed to reverse the effect of rHA”. With `N[C@@H](Cc1cc(I)c(Oc2cc(I)c(O)c(I)c2)c(I)c1)C(=O)O` [thyroxine], the “reversal by hormone of the inhibitory effect on MCF-7 proliferation” value was “failed to reverse the effect of rHA”.

These data come from US20020123080A1, “Inhibiting proliferation of cancer cells” (Tufts University, priority 1996, published 2002).
